Laboratory results as given in ChEMBL document CHEMBL1138031, “3D QSAR studies of N-4-arylacryloylpiperazin-1-yl-phenyl-oxazolidinones: a novel class of antibacterial agents” (2006).
≈ marks a conversion by molar mass, not a printed value.

Tested on: Staphylococcus aureus
Assay: Antibacterial activity against Staphylococcus aureus ATCC 25923
Format: functional
Conditions: for MIC: Staphylococcus aureus, ATCC 25923

Compound	Log (1/C)	MIC [µg/mL]	log(1/C)
NC(=S)NC[C@H]1CN(c2ccc(N3CCN(C(=O)/C=C/c4ccco4)CC3)c(F)c2)C(=O)O1	2.6754	1 (≈ 2.11 µM)	–
NC(=S)NC[C@H]1CN(c2ccc(N3CCN(C(=O)/C=C/c4ccncc4)CC3)c(F)c2)C(=O)O1	2.0833	4 (≈ 8.25 µM)	–
CC(=O)NC[C@H]1CN(c2ccc(N3CCN(C(=O)/C=C/c4ccccc4)CC3)c(F)c2)C(=O)O1	2.0669	4 (≈ 8.57 µM)	–
C/C(S)=N/C[C@H]1CN(c2ccc(N3CCN(C(=O)/C=C/c4ccc([N+](=O)[O-])o4)CC3)c(F)c2)C(=O)O1	3.316	0.25 (≈ 0.483 µM)	–
CC(=O)NC[C@H]1CN(c2ccc(N3CCN(C(=O)/C=C/c4ccc(OS(C)(=O)=O)cc4)CC3)c(F)c2)C(=O)O1	1.8456	8 (≈ 14.3 µM)	–
NC(=S)NC[C@H]1CN(c2ccc(N3CCN(C(=O)/C=C/c4ccccc4)CC3)c(F)c2)C(=O)O1	2.6845	1 (≈ 2.07 µM)	–
C/C(S)=N/C[C@H]1CN(c2ccc(N3CCN(C(=O)/C=C/c4ccccc4)CC3)c(F)c2)C(=O)O1	3.2857	0.25 (≈ 0.518 µM)	–
CC(=O)NC[C@H]1CN(c2ccc(N3CCN(C(=O)/C=C/c4ccc(COC(C)=O)o4)CC3)c(F)c2)C(=O)O1	1.82	8 (≈ 15.1 µM)	–
CC(C)(C)C(=O)Oc1ccc(/C=C/C(=O)N2CCN(c3ccc(N4C[C@H](CNC(N)=S)OC4=O)cc3F)CC2)cc1	1.5621	> 16	–
CC(=O)NC[C@H]1CN(c2ccc(N3CCN(C(=O)/C=C/c4ccc(O)cc4)CC3)c(F)c2)C(=O)O1	2.3825	2 (≈ 4.14 µM)	–
CC(=O)NC[C@H]1CN(c2ccc(N3CCN(C(=O)/C=C/c4ccco4)CC3)c(F)c2)C(=O)O1	2.3584	2 (≈ 4.38 µM)	–
C/C(S)=N/C[C@H]1CN(c2ccc(N3CCN(C(=O)/C=C/c4ccco4)CC3)c(F)c2)C(=O)O1	2.9755	0.5 (≈ 1.06 µM)	–
CC(=O)NC[C@H]1CN(c2ccc(N3CCN(C(=O)/C=C/c4ccc(C(=O)O)o4)CC3)c(F)c2)C(=O)O1	1.4953	> 16	–
NC(=S)NC[C@H]1CN(c2ccc(N3CCN(C(=O)/C=C/c4cccs4)CC3)c(F)c2)C(=O)O1	2.9909	0.5 (≈ 1.02 µM)	–
C/C(S)=N/C[C@H]1CN(c2ccc(N3CCN(C(=O)/C=C/c4cccs4)CC3)c(F)c2)C(=O)O1	3.2911	0.25 (≈ 0.512 µM)	–
NC(=S)NC[C@H]1CN(c2ccc(N3CCN(C(=O)/C=C/c4ccc(O)cc4)CC3)c(F)c2)C(=O)O1	2.6986	1 (≈ 2 µM)	–
CC(=O)NC[C@H]1CN(c2ccc(N3CCN(C(=O)/C=C/c4cccs4)CC3)c(F)c2)C(=O)O1	2.6745	1 (≈ 2.12 µM)	–
CC(=O)NC[C@H]1CN(c2ccc(N3CCN(C(=O)/C=C/c4ccc(C=O)o4)CC3)c(F)c2)C(=O)O1	2.0833	4 (≈ 8.26 µM)	–
CC(=O)NC[C@H]1CN(c2ccc(N3CCN(C(=O)/C=C/c4ccc([N+](=O)[O-])s4)CC3)c(F)c2)C(=O)O1	3.316	0.25 (≈ 0.483 µM)	–
C/C(S)=N/C[C@H]1CN(c2ccc(N3CCN(C(=O)/C=C/c4ccc(O)cc4)CC3)c(F)c2)C(=O)O1	–	2 (≈ 4.01 µM)	2.3967

Compound	Log (1/C)	MIC [µg/mL]	log(1/C)
CC(=O)NC[C@H]1CN(c2ccc(N3CCN(C(=O)/C=C/c4ccc(F)c(F)c4)CC3)c(F)c2)C(=O)O1	1.4971	> 16	–
CC(=O)NC[C@H]1CN(c2ccc(N3CCN(C(=O)/C=C/c4ccoc4)CC3)c(F)c2)C(=O)O1	2.3584	2 (≈ 4.38 µM)	–
CC(=O)NC[C@H]1CN(c2ccc(N3CCN(C/C=C/c4ccco4)CC3)c(F)c2)C(=O)O1	2.0439	4 (≈ 9.04 µM)	–
NC(=S)NC[C@H]1CN(c2ccc(N3CCN(C(=O)/C=C/c4c[nH]c5ccccc45)CC3)c(F)c2)C(=O)O1	3.3318	0.25 (≈ 0.478 µM)	–
CC(=O)NC[C@H]1CN(c2ccc(N3CCN(C(=O)/C=C/c4ccc(OC(=O)C(C)(C)C)cc4)CC3)c(F)c2)C(=O)O1	1.5492	> 16	–
CC(=O)NC[C@H]1CN(c2ccc(N3CCN(C/C=C/c4ccc([N+](=O)[O-])o4)CC3)c(F)c2)C(=O)O1	2.387	2 (≈ 4.1 µM)	–
CC(=O)NC[C@H]1CN(c2ccc(N3CCN(C(=O)/C=C/c4ccc(C)o4)CC3)c(F)c2)C(=O)O1	2.0706	4 (≈ 8.5 µM)	–
CC(=O)NC[C@H]1CN(c2ccc(N3CCN(C(=O)/C=C/c4ccncc4)CC3)c(F)c2)C(=O)O1	2.3688	2 (≈ 4.28 µM)	–
CC(=O)NC[C@H]1CN(c2ccc(N3CCN(C(=O)CO)CC3)c(F)c2)C(=O)O1 [EPEREZOLID]	1.9939	4 (≈ 10.1 µM)	–
CC(=O)NC[C@H]1CN(c2ccc(N3CCN(C(=O)/C=C/c4cccnc4)CC3)c(F)c2)C(=O)O1	2.6698	1 (≈ 2.14 µM)	–
CC(=O)NC[C@H]1CN(c2ccc(N3CCN(C(=O)/C=C/c4ccc([N+](=O)[O-])o4)CC3)c(F)c2)C(=O)O1	3.3024	0.25 (≈ 0.499 µM)	–
CC(=O)NC[C@H]1CN(c2ccc(N3CCN(C(=O)/C=C/c4ccc[nH]4)CC3)c(F)c2)C(=O)O1	2.3575	2 (≈ 4.39 µM)	–
CC(=O)NC[C@H]1CN(c2ccc(N3CCN(C(=O)/C=C/c4c[nH]c5ccccc45)CC3)c(F)c2)C(=O)O1	2.4028	2 (≈ 3.96 µM)	–
CC(=O)NC[C@H]1CN(c2ccc(N3CCN(C(=O)/C=C/c4cccc(O)c4)CC3)c(F)c2)C(=O)O1	2.3825	2 (≈ 4.14 µM)	–
CC(=O)NC[C@H]1CN(c2ccc(N3CCN(C(=O)/C=C/c4ccsc4)CC3)c(F)c2)C(=O)O1	2.3735	2 (≈ 4.23 µM)	–
C/C(S)=N/C[C@H]1CN(c2ccc(N3CCN(C(=O)/C=C/c4ccncc4)CC3)c(F)c2)C(=O)O1	2.9855	0.5 (≈ 1.03 µM)	–
CC(=O)NC[C@H]1CN(c2ccc(N3CCN(C(=O)/C=C/c4ccc(CO)o4)CC3)c(F)c2)C(=O)O1	2.0851	4 (≈ 8.22 µM)	–
C/C(S)=N/C[C@H]1CN(c2ccc(N3CCN(C(=O)/C=C/c4c[nH]c5ccccc45)CC3)c(F)c2)C(=O)O1	3.0184	0.5 (≈ 0.959 µM)	–
CC(=O)NC[C@H]1CN(c2ccc(N3CCN(C(=O)/C=C/c4ccc(O)c(O)c4)CC3)c(F)c2)C(=O)O1	1.4936	16 (≈ 32.1 µM)	–
